For the assay, the target named is Carbonic anhydrase 4 (Homo sapiens, UniProt P22748).

Two compounds from ChEMBL document CHEMBL1143327, “Carbonic anhydrase inhibitors: inhibition studies of a coral secretory isoform with inorganic anions” (Bioorg Med Chem Lett, 2009) can be followed below.

Broadly, the Ki is the dissociation constant of the complex between target and ligand, obtained from inhibition or displacement. The low end stands for higher affinity, the high end for lower affinity.

Sequence of Carbonic anhydrase 4 (P22748 whole entry): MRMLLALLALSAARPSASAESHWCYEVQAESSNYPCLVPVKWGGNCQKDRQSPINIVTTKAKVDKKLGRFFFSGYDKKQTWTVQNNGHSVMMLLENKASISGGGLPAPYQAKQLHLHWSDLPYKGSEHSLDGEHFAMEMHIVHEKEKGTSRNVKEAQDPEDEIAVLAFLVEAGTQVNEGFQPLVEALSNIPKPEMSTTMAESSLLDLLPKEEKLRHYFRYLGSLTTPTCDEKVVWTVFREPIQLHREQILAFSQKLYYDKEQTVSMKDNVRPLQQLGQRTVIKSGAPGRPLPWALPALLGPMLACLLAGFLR

`OB(O)c1ccccc1` [PHENYLBORONIC ACID] gave a Ki of 820 µM.

Consider `NS(=O)(=O)O` [SULFAMATE], for which affinity was put at a Ki of 90 µM.
